Measurements taken from patent publication US6797461B2, “Tryptase substrates and assay for tryptase activity using same” (Promega Corporation, priority 2000, dated 2004).
Residues, ends and D or L forms follow the SMILES beside them. *: point of attachment. ACC = NC(=O)Cc1cc(=O)oc2cc(N*)ccc12

Key:
Type in all cases: biochemical
[1] = biological target: T1, recombinant human β-I tryptase (skin tryptase) (Homo sapiens, UniProt Q15661); test: Single substrate kinetic analysis of fluorogenic ACC substrates, skin (β-I) tryptase
T1 construct: Secreted mature βI- and βII-tryptases were purified to homogeneity; made in house; host or cells: Pichia pastoris
Protocol: (§1) βI- and βII-tryptase concentrations ranged from 5 nM to 15 nM. The final concentration of substrate ranged from 5 μM to 200 μM; the concentration of DMSO in the assay was less than 5%. Hydrolysis of ACC substrates was monitored fluorometrically with an excitation wavelength of 380 nm and an emission wavelength of 460 nm on a Fluoromax-2 spectrofluorimeter.
(§2) Tryptase activity was monitored at 30° C. in assay buffer containing 100 mM HEPES, pH 7.5, 10% w/v glycerol, and 0.1 mg/ml heparin. Substrate stock solutions were prepared in DMSO. The final concentration of substrate ranged from 5 μM to […], the concentration of DMSO in the assay was less than 5%. Tryptase concentration was 5 nM.
(§3) Hydrolysis of ACC substrates was monitored fluorometrically with an excitation wavelength of 380 nm and emission wavelength of 450 nm on a Fluoromax-2 spectrofluorimeter. The amino-terminus of each polypeptide was acetylated.
(§4) To quantitate tryptase βI and βII dependence on extended substrate specificity, several peptide substrates were synthesized and the kinetic constants determined for each of the enzymes. […] All of these effects are manifested in the Km term, not the kcat term.
(§5) Kinetic parameters were independently obtained for both recombinant β-I and β-II tryptases against rational substitutions in the substrates at P2-P4 positions.

[2] = tested on: T2, recombinant human β-II tryptase (lung tryptase) (Homo sapiens, N132K); test: Single substrate kinetic analysis of fluorogenic ACC substrates, lung (β-II) tryptase
T2 construct: Secreted mature βI- and βII-tryptases were purified to homogeneity; made in house; host or cells: Pichia pastoris GS115
Protocol: as §1, §2, §3, §4, §5

[3] = tested on: non-tryptase proteolysis in human serum; test: Non-tryptase proteolytic activities in serum with protease inhibitors (FIG. 9); settings: 25 μg/ml, 30 minutes at room temperature, Ac-PRNK-ACC 100 μM
Protocol: Human recombinant β-I tryptase (Promega) was two-fold serially diluted in human serum from 10,000 pg to 190 pg/ml. Aprotinin, Soybean trypsin inhibitor (SBTI) or anti-trypsin was added to each dilution at 25 μg/ml and allowed to incubate at room temperature for 30 minutes. An uninhibited serum standard curve was similarly created. 100 μl of each treated and untreated serum dilution was pipetted in triplicate to a microtiter well plate. Ac-PRNK-ACC (SEQ. ID. NO: 12) was added to 100 μM and the plate incubated at room temperature for 10 minutes prior to reading at an excitation wavelength of 355 nm and emission wavelength of 460 nm.

[4] = Skin (β-I) Tryptase, 30° C., 100 mM HEPES pH 7.5, 10% glycerol, 0.1 mg/ml heparin
[5] = Lung (β-II) Tryptase, 30° C., 100 mM HEPES pH 7.5, 10% glycerol, 0.1 mg/ml heparin

T2 sequence (Q15661 31-275 N132K): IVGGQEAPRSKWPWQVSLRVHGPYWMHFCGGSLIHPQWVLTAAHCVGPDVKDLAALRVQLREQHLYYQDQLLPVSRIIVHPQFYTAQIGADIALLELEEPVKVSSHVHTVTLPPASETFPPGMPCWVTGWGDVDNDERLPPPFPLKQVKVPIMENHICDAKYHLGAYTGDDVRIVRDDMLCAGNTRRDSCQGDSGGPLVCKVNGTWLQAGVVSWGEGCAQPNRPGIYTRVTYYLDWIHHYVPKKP
T1 sequence (Q15661 31-275): as the sequence (Q15661 31-275 N132K) above, with K102N counted along it

| Compound | Km [1, 4] | Km [2, 5] | activity relative to Ac-PRNK-ACC substrate (kcat/Km) ([1]; tryptase βI, range stated over tryptase βI and βII) | activity relative to Ac-PRNK-ACC substrate (kcat/Km) ([2]; tryptase βII, range stated over tryptase βI and βII) | kcat [1, 4] | kcat [2, 5] | effect on intrinsic fluorescence associated with non-tryptase proteolysis in serum [3] |
| --- | --- | --- | --- | --- | --- | --- | --- |
| CC(=O)N1CCC[C@H]1C(=O)N[C@@H](CCCNC(=N)N)C(=O)N[C@@H](CC(N)=O)C(=O)N[C@@H](CCCCN)C(=O)Nc1ccc2c(CC(N)=O)cc(=O)oc2c1 [Ac-PRNK-ACC, Acetyl-Prolyl-Arginyl-Asparaginyl-Lysyl-aminoacetamide coumarin] (Ac-PRNK-{ACC}) | 14.5 ± 1.9 µM | 8.9 ± 0.9 µM |  |  |  |  |  |
| CC(=O)N1CCC[C@H]1C(=O)N[C@@H](CCCNC(=N)N)C(=O)N[C@@H](CC(N)=O)C(=O)N[C@@H](CCCNC(=N)N)C(=O)Nc1ccc2c(CC(N)=O)cc(=O)oc2c1 [Ac-PRNR-ACC] (Ac-PRNR-{ACC}) | 18.6 ± 2.6 µM | 16.5 ± 2.7 µM | 70-90% | 70-90% |  |  |  |
| CC(=O)N1CCC[C@H]1C(=O)N[C@@H](CCCNC(=N)N)C(=O)N[C@H](C(=O)N[C@@H](CCCCN)C(=O)Nc1ccc2c(CC(N)=O)cc(=O)oc2c1)[C@@H](C)O [Ac-PRTK-ACC] (Ac-PRTK-{ACC}) | 23.4 ± 2.3 µM | 14.7 ± 1.4 µM |  |  |  |  |  |
| Ac-PANK-ACC: acetylated tetrapeptide P-A-N-K with C-terminal 7-amino-4-carbamoylmethyl-coumarin leaving group | 133 ± 15.6 µM | 110 ± 9.8 µM |  |  | 19.06 ± 0.64 s⁻¹ | 20.27 ± 0.48 s⁻¹ |  |
| aprotinin |  |  |  |  |  |  | significantly and specifically diminished |
